Results reported in paper PMC10518255, “A first-in-class pan-lysyl oxidase inhibitor impairs stromal remodeling and enhances gemcitabine response and survival in pancreatic cancer” (Nature Cancer, 2023).
Like-named read-outs stand apart in the source and are kept apart here.

Columns and labels:
[1] = target: T1, LOXL2 (Homo sapiens, UniProt Q9Y4K0); assay: Time-dependent inhibition with pre-incubation 0-240 min (Fig. 2e); type: biochemical; details: for remaining activity at 30 µM: log conc -4.52288; for remaining activity at 30 µM / remaining activity at 10 µM / remaining activity at 3.333 µM / remaining activity at 1.111 µM / remaining activity at 0.3704 µM / remaining activity at 0.12346 µM / remaining activity at 0.04115 µM / remaining activity at 0.013717 µM / remaining activity at 0.004572 µM / remaining activity at 0.001524 µM / remaining activity at 0.0005081 µM / remaining activity at 0.0001694 µM: read-out: LOXL2 specific activity; for remaining activity at 10 µM: log conc -5; for remaining activity at 3.333 µM: log conc -5.47712; for remaining activity at 1.111 µM: log conc -5.95424; for remaining activity at 0.3704 µM: log conc -6.43136; for remaining activity at 0.12346 µM: log conc -6.90849; for remaining activity at 0.04115 µM: log conc -7.38561; for remaining activity at 0.013717 µM: log conc -7.86273; for remaining activity at 0.004572 µM: log conc -8.33985; for remaining activity at 0.001524 µM: log conc -8.81697; for remaining activity at 0.0005081 µM: log conc -9.29409; for remaining activity at 0.0001694 µM: log conc -9.77121
T1 sequence (Q9Y4K0 26-774): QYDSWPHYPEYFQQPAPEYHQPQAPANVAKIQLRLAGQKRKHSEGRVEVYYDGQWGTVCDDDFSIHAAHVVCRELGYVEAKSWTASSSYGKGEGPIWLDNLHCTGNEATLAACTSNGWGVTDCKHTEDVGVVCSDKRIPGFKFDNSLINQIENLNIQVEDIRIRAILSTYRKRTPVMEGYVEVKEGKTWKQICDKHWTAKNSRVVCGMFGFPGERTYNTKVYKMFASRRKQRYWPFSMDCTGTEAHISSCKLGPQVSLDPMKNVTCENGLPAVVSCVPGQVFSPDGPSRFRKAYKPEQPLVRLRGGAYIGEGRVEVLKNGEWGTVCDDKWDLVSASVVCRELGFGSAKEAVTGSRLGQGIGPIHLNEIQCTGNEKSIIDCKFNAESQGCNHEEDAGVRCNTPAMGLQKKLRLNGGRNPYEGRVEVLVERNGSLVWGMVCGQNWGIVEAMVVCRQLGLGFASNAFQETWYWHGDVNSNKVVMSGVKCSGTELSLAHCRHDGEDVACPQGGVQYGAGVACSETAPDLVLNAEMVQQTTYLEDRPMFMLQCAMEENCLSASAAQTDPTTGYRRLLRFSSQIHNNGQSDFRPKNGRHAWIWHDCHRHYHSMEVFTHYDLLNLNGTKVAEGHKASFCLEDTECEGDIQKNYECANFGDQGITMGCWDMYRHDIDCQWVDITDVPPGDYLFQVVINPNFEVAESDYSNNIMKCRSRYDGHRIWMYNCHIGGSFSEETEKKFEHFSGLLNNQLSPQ
Description: Data are presented as mean ± s.d. […] Data presented as mean ± s.d. […] Source data TEXT PRINTED IN THE PICTURE: (b) PXS-5505: Recombinant DAO IC50 (nM): >30,000; Recombinant SSAO/VAP1 IC50 (nM): >30,000; Recombinant MAO-A IC50 (nM): >30,000; Recombinant MAO-B IC50 (nM): >30,000 | (f) PXS-5505: Fibroblast LOX IC50 (nM): 4,930; Recombinant LOXL-1 IC50 (nM): 1,590; Recombinant LOXL-2 IC50 (nM): 570; Recombinant LOXL-3 IC50 (nM): 1,800; Recombinant LOXL-4 IC50 (nM): 190
Similar to other fluoroallylamine-based amine oxidase inhibitors, the mode of inhibition is assumed to be a two-step mechanism (Fig. 2c), with PXS-5505 reacting with the unique LTQ cofactor found within the active site. The fluoroallylamine facilitates the formation of a covalent, irreversible bond. […] Furthermore, in jump dilution experiments, there is no significant recovery of activity following rapid dilution (LOXL1 (5 ± 5% recovery, n = 4), LOXL2 (7 ± 1.2% recovery, n = 3) and LOXL3 (11 ± 2% recovery, n = 3)).

[2] = Tolerability in mouse PDAC models; type: in vivo; details: >6 months
Description: In our KPC mouse and human PDX in vivo models of PDAC, PXS-5505 reduces collagen deposition and tumor stiffness and improves perfusion of agents into the primary tumor site. […] These in vivo findings match the in vitro organotypic data showing reductions in local invasion. Furthermore, addition of PXS-5505 to gemcitabine treatment extends median survival in the KPC model by approximately 45% and decreases metastatic deposits within the liver compared to gemcitabine alone.

Compound `Cl.Cl.NC/C=C(\F)CS(=O)(=O)c1cccc2cccnc12.O` [PXS-5505, (Z)-3-fluoro-4-(quinolin-8-ylsulfonyl)but-2-en-1-amine dihydrochloride monohydrate] has a remaining activity at 30 µM ([1]; 0.25 h, pre-incubation 15 min) of 1.28%, a remaining activity at 10 µM ([1]; 0.25 h, pre-incubation 15 min) of 4.38% and a remaining activity at 3.333 µM ([1]; 0.25 h, pre-incubation 15 min) of 16%. The remaining activity at 1.111 µM ([1]; 0.25 h, pre-incubation 15 min) was 38.5%, the remaining activity at 0.3704 µM ([1]; 0.25 h, pre-incubation 15 min) was 64% and the remaining activity at 0.12346 µM ([1]; 0.25 h, pre-incubation 15 min) was 86.7%. For the same compound, the remaining activity at 0.04115 µM ([1]; 0.25 h, pre-incubation 15 min) was 93.6%, the remaining activity at 0.013717 µM ([1]; 0.25 h, pre-incubation 15 min) was 96.4% and the remaining activity at 0.004572 µM ([1]; 0.25 h, pre-incubation 15 min) was 99.2%. The remaining activity at 0.001524 µM ([1]; 0.25 h, pre-incubation 15 min) was 98.4%, the remaining activity at 0.0005081 µM ([1]; 0.25 h, pre-incubation 15 min) was 97.8% and the remaining activity at 0.0001694 µM ([1]; 0.25 h, pre-incubation 15 min) was 102%. The remaining activity at 30 µM ([1]; 0.5 h, pre-incubation 30 min) was -0.266%, the remaining activity at 10 µM ([1]; 0.5 h, pre-incubation 30 min) was -0.0903% and the remaining activity at 3.333 µM ([1]; 0.5 h, pre-incubation 30 min) was 4.21%. The remaining activity at 1.111 µM ([1]; 0.5 h, pre-incubation 30 min) was 17.3%, the remaining activity at 0.3704 µM ([1]; 0.5 h, pre-incubation 30 min) was 43.6% and the remaining activity at 0.12346 µM ([1]; 0.5 h, pre-incubation 30 min) was 72.5%. It also gave a remaining activity at 0.04115 µM ([1]; 0.5 h, pre-incubation 30 min) of 87.7%, a remaining activity at 0.013717 µM ([1]; 0.5 h, pre-incubation 30 min) of 93.2% and a remaining activity at 0.004572 µM ([1]; 0.5 h, pre-incubation 30 min) of 96.3%. For the same compound, the remaining activity at 0.001524 µM ([1]; 0.5 h, pre-incubation 30 min) was 109%, the remaining activity at 0.0005081 µM ([1]; 0.5 h, pre-incubation 30 min) was 99.4% and the remaining activity at 0.0001694 µM ([1]; 0.5 h, pre-incubation 30 min) was 103%. The remaining activity at 30 µM ([1]; 1 h, pre-incubation 60 min) was -0.646%, the remaining activity at 10 µM ([1]; 1 h, pre-incubation 60 min) was 0.037% and the remaining activity at 3.333 µM ([1]; 1 h, pre-incubation 60 min) was 1.01%. It also gave a remaining activity at 1.111 µM ([1]; 1 h, pre-incubation 60 min) of 5.82%, a remaining activity at 0.3704 µM ([1]; 1 h, pre-incubation 60 min) of 23.2% and a remaining activity at 0.12346 µM ([1]; 1 h, pre-incubation 60 min) of 62.4%. For the same compound, the remaining activity at 0.04115 µM ([1]; 1 h, pre-incubation 60 min) was 86.9%, the remaining activity at 0.013717 µM ([1]; 1 h, pre-incubation 60 min) was 97.3% and the remaining activity at 0.004572 µM ([1]; 1 h, pre-incubation 60 min) was 101%. It also gave a remaining activity at 0.001524 µM ([1]; 1 h, pre-incubation 60 min) of 104%, a remaining activity at 0.0005081 µM ([1]; 1 h, pre-incubation 60 min) of 104% and a remaining activity at 0.0001694 µM ([1]; 1 h, pre-incubation 60 min) of 106%. It also gave a remaining activity at 30 µM ([1]; 2 h, pre-incubation 120 min) of -0.278%, a remaining activity at 10 µM ([1]; 2 h, pre-incubation 120 min) of 1.09% and a remaining activity at 3.333 µM ([1]; 2 h, pre-incubation 120 min) of 1.27%. It also gave a remaining activity at 1.111 µM ([1]; 2 h, pre-incubation 120 min) of 2.05%, a remaining activity at 0.3704 µM ([1]; 2 h, pre-incubation 120 min) of 7.04% and a remaining activity at 0.12346 µM ([1]; 2 h, pre-incubation 120 min) of 36.3%. For the same compound, the remaining activity at 0.04115 µM ([1]; 2 h, pre-incubation 120 min) was 69.5%, the remaining activity at 0.013717 µM ([1]; 2 h, pre-incubation 120 min) was 87.9% and the remaining activity at 0.004572 µM ([1]; 2 h, pre-incubation 120 min) was 97.9%. It also gave a remaining activity at 0.001524 µM ([1]; 2 h, pre-incubation 120 min) of 102%, a remaining activity at 0.0005081 µM ([1]; 2 h, pre-incubation 120 min) of 102% and a remaining activity at 0.0001694 µM ([1]; 2 h, pre-incubation 120 min) of 103%. The remaining activity at 30 µM ([1]; 4 h, pre-incubation 240 min) was -0.548%, the remaining activity at 10 µM ([1]; 4 h, pre-incubation 240 min) was 0.438% and the remaining activity at 3.333 µM ([1]; 4 h, pre-incubation 240 min) was 0.0615%. For the same compound, the remaining activity at 1.111 µM ([1]; 4 h, pre-incubation 240 min) was 0.566%, the remaining activity at 0.3704 µM ([1]; 4 h, pre-incubation 240 min) was 1.17% and the remaining activity at 0.12346 µM ([1]; 4 h, pre-incubation 240 min) was 14.1%. For the same compound, the remaining activity at 0.04115 µM ([1]; 4 h, pre-incubation 240 min) was 45.6%, the remaining activity at 0.013717 µM ([1]; 4 h, pre-incubation 240 min) was 71.8% and the remaining activity at 0.004572 µM ([1]; 4 h, pre-incubation 240 min) was 91.6%. For the same compound, the remaining activity at 0.001524 µM ([1]; 4 h, pre-incubation 240 min) was 95.6%, the remaining activity at 0.0005081 µM ([1]; 4 h, pre-incubation 240 min) was 101% and the remaining activity at 0.0001694 µM ([1]; 4 h, pre-incubation 240 min) was 102%. The “time-dependent inhibition of LOXL2 specific activity” value ([1]; pre-incubation time 0–240 min) was “increased potency with increased pre-incubation time” and the “adverse side effects in mouse PDAC models” value [2] was “no adverse side effects”.
